# Several values for one entry are separate records, joined by “and”; a condition that tells them apart may be missing. Equal entries are not always repeated.
# Test system: 817829-284-R-J1-PDC multi-cell spheroid viability
# Test: Anticancer human tumor 817829-284-R-J1-PDC patient-derived colon adenocarcinoma cell line growth inhibition [PI3K]
# Conditions: for viability, T/C: stronger effect = lower value
# Procedure, shortened: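 Three cell types, namely tumor cells, endothelial cells and mesenchymal stem cells, formed each spheroid. Combinations with four PI3K inhibitors were screened at clinically achievable concentrations decreasing by half-log, and spheroid viability was recorded.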
# [1] = curve of first compound, second compound 0.00316 µM
# [2] = curve of first compound, second compound 0.01 µM
# [3] = curve of first compound, second compound 0.0316 µM
# [4] = curve of first compound, second compound 0.1 µM
# [5] = curve of first compound, second compound 0.316 µM
# [6] = curve of first compound, second compound 1 µM
# [7] = second compound 0.00316 µM, first compound 0.0316 µM
# [8] = second compound 0.00316 µM, first compound 0.1 µM
# [9] = second compound 0.00316 µM, first compound 0.316 µM
# [10] = second compound 0.00316 µM, first compound 1 µM
# [11] = second compound 0.00316 µM, first compound 3.16 µM
# [12] = second compound 0.00316 µM, first compound 10 µM
# [13] = second compound 0.01 µM, first compound 0.0316 µM
# [14] = second compound 0.01 µM, first compound 0.1 µM
# [15] = second compound 0.01 µM, first compound 0.316 µM
# [16] = second compound 0.01 µM, first compound 1 µM
# [17] = second compound 0.01 µM, first compound 3.16 µM
# [18] = second compound 0.01 µM, first compound 10 µM
# [19] = second compound 0.0316 µM, first compound 0.0316 µM
# [20] = second compound 0.0316 µM, first compound 0.1 µM
# [21] = second compound 0.0316 µM, first compound 0.316 µM
# [22] = second compound 0.0316 µM, first compound 1 µM
# [23] = second compound 0.0316 µM, first compound 3.16 µM
# [24] = second compound 0.0316 µM, first compound 10 µM
# [25] = second compound 0.1 µM, first compound 0.0316 µM
# [26] = second compound 0.1 µM, first compound 0.1 µM
# [27] = second compound 0.1 µM, first compound 0.316 µM
# [28] = second compound 0.1 µM, first compound 1 µM
# [29] = second compound 0.1 µM, first compound 3.16 µM
# [30] = second compound 0.1 µM, first compound 10 µM
# [31] = second compound 0.316 µM, first compound 0.0316 µM
# [32] = second compound 0.316 µM, first compound 0.1 µM
# [33] = second compound 0.316 µM, first compound 0.316 µM
# [34] = second compound 0.316 µM, first compound 1 µM
# [35] = second compound 0.316 µM, first compound 3.16 µM
# [36] = second compound 0.316 µM, first compound 10 µM
# [37] = second compound 1 µM, first compound 0.0316 µM
# [38] = second compound 1 µM, first compound 0.1 µM
# [39] = second compound 1 µM, first compound 0.316 µM
# [40] = second compound 1 µM, first compound 1 µM
# [41] = second compound 1 µM, first compound 3.16 µM
# [42] = second compound 1 µM, first compound 10 µM
# 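Note: spheroids exposed to agents for seven days before readout.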
# 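Throughout, for viability, T/C: percent of vehicle DMSO control viability which is 100%.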
smiles,measurement,setting,value
Cn1ncc(Cl)c1-c1cc(C(=O)NC(CN)Cc2cccc(F)c2)sc1Cl (centres undefined),"viability, T/C",compound 0.0316 µM,52.7% and 85.2%
same,"viability, T/C",compound 0.1 µM,47.4% and 54.1%
same,"viability, T/C",compound 0.316 µM,31.6% and 27.1%
same,"viability, T/C",compound 1 µM,18.3% and 22.5%
same,"viability, T/C",compound 3.16 µM,16.1% and 20.2%
same,"viability, T/C",compound 10 µM,76.6% and 13.4%
same,IC50,curve of compound,< 0.0316 µM and 0.118 µM
CCCS(=O)(=O)Nc1ccc(F)c(C(=O)c2c[nH]c3ncc(-c4ccc(Cl)cc4)cc23)c1F + COc1c(OCCCN2CCOCC2)ccc2c3n(c(=NC(=O)c4cnc(N)nc4)nc12)CCN3,IC50,[1],1.9 µM
same,IC50,[2],4.24 µM
same,IC50,[3],2.3 µM
same,IC50,[4],0.0316 µM
same,IC50,[5],< 0.0316 µM
same,IC50,[6],< 0.0316 µM
same,"viability, T/C",[7],117%
same,"viability, T/C",[8],87%
same,"viability, T/C",[9],71.5%
same,"viability, T/C",[10],66.4%
same,"viability, T/C",[11],59.5%
same,"viability, T/C",[12],10.7%
same,"viability, T/C",[13],104%
same,"viability, T/C",[14],53.6%
same,"viability, T/C",[15],66.5%
same,"viability, T/C",[16],70.9%
same,"viability, T/C",[17],64.1%
same,"viability, T/C",[18],8.97%
same,"viability, T/C",[19],45.4%
same,"viability, T/C",[20],70%
same,"viability, T/C",[21],43.8%
same,"viability, T/C",[22],64.1%
same,"viability, T/C",[23],47.9%
same,"viability, T/C",[24],10.2%
same,"viability, T/C",[25],34.4%
same,"viability, T/C",[26],39.3%
same,"viability, T/C",[27],71.2%
same,"viability, T/C",[28],26.8%
same,"viability, T/C",[29],28.2%
same,"viability, T/C",[30],14.4%
same,"viability, T/C",[31],21.7%
same,"viability, T/C",[32],19.6%
same,"viability, T/C",[33],21.3%
same,"viability, T/C",[34],16%
same,"viability, T/C",[35],16.1%
same,"viability, T/C",[36],9.88%
same,"viability, T/C",[37],10%
same,"viability, T/C",[38],14.3%
same,"viability, T/C",[39],8.54%
same,"viability, T/C",[40],6.57%
same,"viability, T/C",[41],9.78%
same,"viability, T/C",[42],4.54%
C[C@@H](NC(=O)c1ncnc(N)c1Cl)c1ncc(C(=O)Nc2cc(C(F)(F)F)c(Cl)cn2)s1 + COc1c(OCCCN2CCOCC2)ccc2c3n(c(=NC(=O)c4cnc(N)nc4)nc12)CCN3,IC50,[1],10 µM
same,IC50,[2],> 10 µM
same,IC50,[3],> 10 µM
same,IC50,[4],< 0.0316 µM
same,IC50,[5],< 0.0316 µM
same,IC50,[6],< 0.0316 µM
same,"viability, T/C",[7],126%
same,"viability, T/C",[8],153%
same,"viability, T/C",[9],59.9%
same,"viability, T/C",[10],62%
same,"viability, T/C",[11],69.7%
same,"viability, T/C",[12],69.3%
same,"viability, T/C",[13],101%
same,"viability, T/C",[14],79.9%
same,"viability, T/C",[15],72%
same,"viability, T/C",[16],68.5%
same,"viability, T/C",[17],75.3%
same,"viability, T/C",[18],87.7%
same,"viability, T/C",[19],68.5%
same,"viability, T/C",[20],64.1%
same,"viability, T/C",[21],43.2%
same,"viability, T/C",[22],57.1%
same,"viability, T/C",[23],64%
same,"viability, T/C",[24],72.3%
same,"viability, T/C",[25],31%
same,"viability, T/C",[26],38%
same,"viability, T/C",[27],29.8%
same,"viability, T/C",[28],32.3%
same,"viability, T/C",[29],41.5%
same,"viability, T/C",[30],62.8%
same,"viability, T/C",[31],26.3%
same,"viability, T/C",[32],20%
same,"viability, T/C",[33],24.6%
same,"viability, T/C",[34],23.8%
same,"viability, T/C",[35],21.9%
same,"viability, T/C",[36],16.5%
same,"viability, T/C",[37],11.8%
same,"viability, T/C",[38],10.6%
same,"viability, T/C",[39],10.6%
same,"viability, T/C",[40],9.58%
same,"viability, T/C",[41],10%
same,"viability, T/C",[42],4.95%
CC(C)n1nc(-c2ccc3oc(N)nc3c2)c2c(N)ncnc21,"viability, T/C",compound 0.000316 µM,54.7% and 69.8% and 94.8%
same,"viability, T/C",compound 0.001 µM,120% and 96.8% and 70%
same,"viability, T/C",compound 0.00316 µM,68.2% and 77.3% and 63.2%
same,"viability, T/C",compound 0.01 µM,52.8% and 72.2% and 93.4%
same,"viability, T/C",compound 0.0316 µM,58.9% and 37.7% and 41.6%
same,"viability, T/C",compound 0.1 µM,21.2% and 24% and 17.7%
same,IC50,curve of compound,0.033 µM and 0.0209 µM and 0.0246 µM
Cn1nccc1Nc1nccc(-c2ccn(C(CO)c3ccc(Cl)c(F)c3)c(=O)c2)n1 (centres undefined),"viability, T/C",compound 0.0316 µM,100% and 96.5%
same,"viability, T/C",compound 0.1 µM,68.5% and 79.2%
same,"viability, T/C",compound 0.316 µM,84.3% and 83.6%
same,"viability, T/C",compound 1 µM,110% and 86.8%
same,"viability, T/C",compound 3.16 µM,71.2% and 81.6%
same,"viability, T/C",compound 10 µM,26% and 39.2%
same,IC50,curve of compound,5.42 µM and 7.46 µM
C=CC(=O)N1CCN(c2nc(=O)n(-c3c(C)ccnc3C(C)C)c3nc(-c4c(O)cccc4F)c(F)cc23)C(C)C1 (centres undefined) + CC(Nc1ccc2c(c1)OCCn1cc(N3C(=O)OCC3C(F)F)nc1-2)C(N)=O,IC50,[1],> 10 µM
same,IC50,[2],> 10 µM
same,IC50,[3],> 10 µM
same,IC50,[4],6.65 µM
same,IC50,[5],> 10 µM
same,IC50,[6],> 10 µM
same,"viability, T/C",[7],91.4%
same,"viability, T/C",[8],93.3%
same,"viability, T/C",[9],82.9%
same,"viability, T/C",[10],71.9%
same,"viability, T/C",[11],77.9%
same,"viability, T/C",[12],55.4%
same,"viability, T/C",[13],62.7%
same,"viability, T/C",[14],57.7%
same,"viability, T/C",[15],83.9%
same,"viability, T/C",[16],78.6%
same,"viability, T/C",[17],84.8%
same,"viability, T/C",[18],38.9%
same,"viability, T/C",[19],53.8%
same,"viability, T/C",[20],112%
same,"viability, T/C",[21],108%
same,"viability, T/C",[22],51.1%
same,"viability, T/C",[23],64%
same,"viability, T/C",[24],73.7%
same,"viability, T/C",[25],64.7%
same,"viability, T/C",[26],92.2%
same,"viability, T/C",[27],79.2%
same,"viability, T/C",[28],84.2%
same,"viability, T/C",[29],78.9%
same,"viability, T/C",[30],34.1%
same,"viability, T/C",[31],60.1%
same,"viability, T/C",[32],75.9%
same,"viability, T/C",[33],67.4%
same,"viability, T/C",[34],52.6%
same,"viability, T/C",[35],68%
same,"viability, T/C",[36],44.6%
same,"viability, T/C",[37],61.6%
same,"viability, T/C",[38],53.9%
same,"viability, T/C",[39],79.3%
same,"viability, T/C",[40],57.3%
same,"viability, T/C",[41],62.7%
same,"viability, T/C",[42],53.5%
C#Cc1c(F)ccc2cc(O)cc(-c3ncc4c(N5CC6CCC(C5)N6)nc(OCC56CCCN5CC(F)C6)nc4c3F)c12 (centres undefined),"viability, T/C",compound 0.0316 µM,83.3% and 99%
same,"viability, T/C",compound 0.1 µM,95.1% and 72.9%
same,"viability, T/C",compound 0.316 µM,69.9% and 83%
same,"viability, T/C",compound 1 µM,68.4% and 99.7%
same,"viability, T/C",compound 3.16 µM,87.7% and 88.6%
same,"viability, T/C",compound 10 µM,33.2% and 56.2%
same,IC50,curve of compound,6.66 µM and > 10 µM
